Patent US7531500B2, “Preventing airway mucus production by administration of EGF-R antagonists” (The Regents of the University of California, priority 1998, dated 2009)

What was measured:
EGFR = EGFR (Homo sapiens, UniProt P00533); experiment: Immunoprecipitation of EGF-R and immunoblotting for tyrosine phosphorylation in NCI-H292 cells; assay type: cell-based; design: These cells express EGF-R constitutively; endogenous in cells; host or cells: NCI-H292 (human pulmonary mucoepidermoid carcinoma); settings: within 15 min of stimulus
EGFR, sequence (P00533 25-1210): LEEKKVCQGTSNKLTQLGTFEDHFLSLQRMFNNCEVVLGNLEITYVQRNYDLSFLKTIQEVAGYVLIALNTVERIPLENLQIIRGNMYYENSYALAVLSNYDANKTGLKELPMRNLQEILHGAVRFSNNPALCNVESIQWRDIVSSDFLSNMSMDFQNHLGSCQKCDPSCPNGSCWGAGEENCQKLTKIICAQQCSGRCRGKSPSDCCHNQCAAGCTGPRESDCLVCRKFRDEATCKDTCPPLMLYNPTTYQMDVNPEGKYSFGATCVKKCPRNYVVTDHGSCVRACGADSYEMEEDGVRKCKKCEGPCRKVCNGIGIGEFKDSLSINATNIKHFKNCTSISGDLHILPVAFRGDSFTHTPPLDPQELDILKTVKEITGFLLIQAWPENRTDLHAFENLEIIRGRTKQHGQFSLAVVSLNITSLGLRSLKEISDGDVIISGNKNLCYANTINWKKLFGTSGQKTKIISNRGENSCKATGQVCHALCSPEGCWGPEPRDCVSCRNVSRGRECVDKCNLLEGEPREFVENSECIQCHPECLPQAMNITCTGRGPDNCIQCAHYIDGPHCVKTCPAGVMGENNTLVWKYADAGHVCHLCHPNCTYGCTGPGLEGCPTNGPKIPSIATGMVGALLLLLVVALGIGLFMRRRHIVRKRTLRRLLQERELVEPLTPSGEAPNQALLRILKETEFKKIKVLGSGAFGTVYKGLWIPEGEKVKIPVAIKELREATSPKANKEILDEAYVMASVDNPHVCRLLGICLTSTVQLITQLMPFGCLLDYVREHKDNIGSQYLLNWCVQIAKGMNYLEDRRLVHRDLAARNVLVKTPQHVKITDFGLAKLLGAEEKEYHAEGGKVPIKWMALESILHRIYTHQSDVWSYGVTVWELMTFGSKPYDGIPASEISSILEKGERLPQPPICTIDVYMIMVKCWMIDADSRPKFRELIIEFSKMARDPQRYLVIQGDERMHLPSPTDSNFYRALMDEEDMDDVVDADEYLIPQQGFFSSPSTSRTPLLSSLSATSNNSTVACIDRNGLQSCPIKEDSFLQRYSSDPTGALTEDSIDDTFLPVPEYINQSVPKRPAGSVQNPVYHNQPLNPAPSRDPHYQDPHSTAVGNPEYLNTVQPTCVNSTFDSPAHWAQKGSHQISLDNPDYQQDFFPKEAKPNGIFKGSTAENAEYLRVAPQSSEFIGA
Description: Immunoprecipitation for EGF-R Protein and Immunoblotting for Tyrosine Phosphorylation. Cells were serum-starved for 24 h and then stimulated with TGFα, H2O2, or the supernatant of activated neutrophils for 15 min. After stimulation, cells were lysed and incubated for 30 min in an orbital shaker at 4° C. To remove insoluble material, cell lysates were centrifuged at 14,000 rpm for 5 min at 4° C. Aliquots of supernatants containing equal amounts of protein were immunoprecipitated with anti-EGF receptor antibody (polyclonal, Ab4, Calbiochem) and 20 μl of protein A-agarose (Santa Cruz) for 2 h at 4° C. Precipitates were washed three times with 0.5 ml of lysis buffer, suspended in SDS sample buffer, and boiled for 5 min. Proteins were separated by SDS-PAGE in 8.0% acrylamide gel. The resulting gel was equilibrated in the transfer buffer: 25 mM Tris-HCl, 192 mM glycine, 20% (vol/vol) methanol, pH 8.3. The proteins were then transferred electrophoretically to nitrocellulose membranes (0.22 μm), blocked with 5% fat-free skimmed milk in PBS containing 0.05% Tween 20 overnight and then incubated with monoclonal anti-phosphotyrosine antibody (1:100,Santa Cruz) for 1 h. Bound antibody was visualized according to a standard protocol for the avidin-biotin-alkaline phosphatase complex method (ABC kit, Vector Laboratories).

NCI-H292 cells [1] = experiment: Immunoassay of MUC5AC protein in NCI-H292 cells (Example 2); assay type: cell-based, human
Description: Cell Culture. NCI-H292 cells, a human pulmonary mucoepidermoid carcinoma cell line, were grown in RPMI 1640 medium containing 10% fetal bovine serum, penicillin (100 U/ml), streptomycin (100 μg/ml) and Hepes (25 mM) at 37° C. in a humidified 5% CO2, water-jacketed incubator. Either 6-well culture plates or 8-chamber slides were used to culture the cells. […] The cells were then washed and incubated with fresh medium alone. Experiments were terminated at preselected times (for mRNA, 6 h and 12 h; for protein, 24 h). As controls, cells were incubated with medium alone for same time periods. […] In inhibition studies with blocking antibodies to EGF-R ligands, the supernatants were pretreated with anti-TGFα antibody (Calbiochem) or anti-EGF antibody for 30 min and then added to NCI-H292 cells. The role of oxygen free radicals was examined using scavengers of oxygen free radical DMSO (1%, Sigma), 1,3-dimethyl-2-thiourea (DMTU, 50 mM, Sigma), or superoxide dismutase (SOD, 300 U/ml, Sigma).
Preparation of Cigarette Smoke Solution. Research cigarettes (code2R1, produced for the University of Kentucky Tobacco and Health Research Foundation) were used in the study. Cigarette smoke solution was prepared as previously described (Dusser et al. (1989) J. Clin. Invest. 84:900-906). In brief, cigarette smoke was withdrawn into a polypropylene syringe (35 ml) at a rate of one puff/min (10 times) and bubbled slowly into 20 ml of RPM11640 containing 50 mM Hepes buffer. The smoke solution was then titrated to pH 7,4 and used immediately after preparation.
Immunoassay of MUC5AC Protein. MUC5AC protein was measured as described above. In brief, cell lysates were prepared with PBS at multiple dilutions, and 50 μl of each sample was incubated with bicarbonate-carbonate buffer (50 μl) at 40° C. in a 96-well plate (Maxisorp Nunc, Fisher Scientific, Santa Clara, Calif.), until dry. Plates were washed three times with PBS and blocked with 2% BSA (fraction V, Sigma) for 1 h at room temperature. Plates were again washed three times with PBS and then incubated with 50 μl of mouse monoclonal MUC5AC antibody (1:100) that was diluted with PBS containing 0.05% Tween 20. After 1 h, the wells were washed three times with PBS, and 100 μl horseradish peroxidase-goat anti-mouse IgG conjugate (1:10,000, Sigma) was dispensed into each well. After 1 h, plates were washed three times with PBS. Color reaction was developed with TMB peroxidase solution (Kirkegaard & Perry Laboratories, Gaithersburg, Md.) and stopped with 2N H2SO4. Absorbance was read at 450 nm.

NCI-H292 cells [2] = experiment: In situ hybridization for MUC5AC gene in NCI-H292 cells (Example 2); assay type: cell-based, human; settings: within 12 h
Description: Cell Culture. NCI-H292 cells, a human pulmonary mucoepidermoid carcinoma cell line, were grown in RPMI 1640 medium containing 10% fetal bovine serum, penicillin (100 U/ml), streptomycin (100 μg/ml) and Hepes (25 mM) at 37° C. in a humidified 5% CO2, water-jacketed incubator. Either 6-well culture plates or 8-chamber slides were used to culture the cells. When confluent, cells were incubated for 1 h with neutrophils (10^6 cells/ml) alone, TNFα alone (recombinant human TNFα, 20 ng/ml, Genzyme, Cambridge, Mass.), IL-8 (recombinant human IL-8, 10^−8 M, Genzyme) alone, fMLP (10^−8 M, Sigma, St. Louis, Mo.) alone, TNFα plus neutrophils, IL-8 plus neutrophils, fMLP plus neutrophils, hydrogen peroxide (H2O2, 200 μM), cigarette smoke solution or TGFα (recombinant human TGFα, 0.1-25 ng/ml, Calbiochem, San Diego, Calif.). The cells were then washed and incubated with fresh medium alone. Experiments were terminated at preselected times (for mRNA, 6 h and 12 h; for protein, 24 h). As controls, cells were incubated with medium alone for same time periods. […] NCI-H292 cells were incubated for 1 h with either neutrophils that had been incubated with TNFα (20 ng/ml) for 1 h and then washed with sterile PBS to avoid contamination with the supernatant (e.g., molecules released from neutrophils), or the NCI-H292 cells were incubated with supernatant only. […]

NCI-H292 cells [3] = experiment: Alcian blue/PAS staining of NCI-H292 cells for mucin glycoproteins; assay type: cell-based, human; settings: TNFα 20 ng/ml; EGF, TGFα each 25 ng/ml
Description: (§1) Cell culture. A human pulmonary mucoepidermoid carcinoma cell line, NCI-H292 cells, were grown in RPMI11640 medium containing 10% fetal bovine serum, penicillin (100 U/ml), streptomycin (100 μg/ml) at 37° C. in a humidified 5% CO2 water-jacketed incubator. […] In inhibition studies with an EGF-R tyrosine kinase inhibitor, BIBX1522 (10 μg/ml, generously provided by Boehringer Ingelheim Inc., Ingelheim, Germany), cells were pretreated with BIBX1522 30 min before adding growth factors. After incubation, cells grown in a T-75 flask were used for total RNA extraction or protein extraction, and 8-chamber slides were used for Alcian blue/PAS-staining to visualize mucins.

NCI-H292 cells [4] = experiment: Northern analysis for MUC5 gene expression in NCI-H292 cells; assay type: cell-based, human; settings: EGF or TGFα 25 ng/ml, TNFα 20 ng/ml; 12 h, 24 h
Description: as §1

pathogen-free rats = experiment: Goblet cell production in pathogen-free rats after tracheal instillation of TNFα and EGF-R ligands; assay type: in vivo, rat; settings: intratracheal 600 ng, alone
Description: Healthy rats. Rats were anesthetized with methohexital sodium (Brevital sodium, 50 mg/kg, i.p.; Eli Lilly & Co., Indianapolis, Ind.) and allowed to breathe spontaneously. […] In each study, sterile PBS (100 μl) was instilled into the trachea as control. […] Rats were pretreated with BIBX1522 (3, 10 or 30 mg/kg, i.p.), 1 h before and 24 h after instillation of TGFα. The trachea and lungs were removed for examination 48 h after the instillation of TGFα.
Tissue preparation. At preselected times during anesthesia, the systemic circulation was perfused with 1% paraformaldehyde in DEPC-treated PBS at a pressure of 120 mmHg. The trachea was then removed and placed in 4% paraformaldehyde for 24 h. After fixation, trachea and lungs were embedded in either JB-4 plus monomer solution A for cell analysis or O.C.T. compound (Sakura Finetek U.S.A., Inc., Torrance, Calif.) for immunohistochemistry and in situ hybridization. The embedded tissues were cut as cross sections ([…] thick) and placed on slides.
Cell analysis. We counted the total number of epithelial cells by counting epithelial cell nuclei over 2 mm of the basal lamina with an oil immersion objective lens (×1000 magnification). The linear length of the basal lamina under each analyzed region of epithelium was determined by tracing the contour of the digitized image of the basal lamina. After instillation of stimuli, “developing” goblet cells form. These cells have Alcian blue/PAS-positive granules, but the size of granules is small, and the number of cytoplasmic granules is few. We call these “developing” goblet cells “pre-goblet cells”, a stage before cells become mature goblet cells. Goblet cells are tall, cuboidal, goblet to low columnar in shape, with abundant Alcian blue/PAS-stained granules filling most of the cytoplasm between the nucleus and the luminal surface. Pre-goblet cells are defined as cells with smaller mucus-stained areas (<1/3 height in epithelium from basement membrane to luminal surface) or with sparsely and lightly Alcian blue/PAS-stained, small granules. Ciliated cells are recognized by their ciliated borders, lightly stained cytoplasm, and large round nuclei. Non-granulated secretory cells are columnar in shape and extend from the lumen to the basal lamina. The cytoplasm stains light pink color, and a few tiny PAS-positive and Alcian blue-negative granules are observed in the cytoplasm. Basal cells are small flattened cells with a large nucleus, located just above the basal lamina but not reaching the airway lumen.
Quantification of goblet cell production. Goblet cell production, was determined by the volume density of Alcian blue/PAS-stained mucosubstances on the mucosal surface epithelium using a semi-automatic imaging system described elsewhere (Weber et al. (1984) Science 224:294-297). We measured the Alcian blue/PAS-positive stained area and the total epithelial area and expressed the data as the percentage of the total area stained by Alcian blue-PAS. The analysis was performed with the public domain NIH Image program (developed at the U.S. National Institute of Health and available from the Internet by anonymous FTP from zippy.nimh.gov or on floppy disk from the National Technical Information Service, Springfield, Va., part number PB95-500195GEI).
Immunohistochemical localization of EGF-R in rat epithelium. The localization of EGF-R was examined using immunchistochemical staining with an antibody to EGF-R (Calbiochem, San Diego, Calif.) in frozen sections of rat trachea. After perfusion with 1% paraformaldehyde in PBS, tissues were placed in 4% paraformaldehyde in PBS for 1 h and then removed in 30% sucrose for cryoprotection overnight. Tracheas were embedded in O.C.T. compound (Sakura Finetek U.S.A., Inc., Torrance, Calif.) and frozen. Frozen sections (5 μm) were cut and placed on glass slides (Superfrost Plus, Fisher Scientific, Pittsburgh, Pa.). Immunostaining was performed similarly to the in vitro studies.

## OO [H2O2, hydrogen peroxide]
EGFR
  EGF-R-specific tyrosine phosphorylation: induced EGF-R-specific tyrosine phosphorylation
NCI-H292 cells [1]
  maximum response in MUC5AC synthesis relative to the response to TGFα: half
NCI-H292 cells [1]; H2O2 200 μM, cigarette smoke solution
  MUC5AC synthesis in NCI-H292 cells, stimulus alone: caused MUC5AC synthesis
NCI-H292 cells [2]
  MUC5AC gene expression: up-regulated

## EGF: recombinant human epidermal growth factor (Genzyme)
NCI-H292 cells [3]
  PAS-positive staining on incubation with mediator: increased PAS-positive staining
NCI-H292 cells [4]
  MUC5 gene expression on incubation with mediator: clearly expressed at 24 h
pathogen-free rats
  epithelial production of mucous glycoconjugates: had no effect
